Series [1] can be described thus: Solubility (Test F). Particulars: arithmetic mean if run multiple times. Type of series: physicochemical. As for the experimental part:
The assay was conducted according to the Solubility Assay described in pages 164-167 of Wernevik, J. et al., “A Fully Integrated Assay Panel for Early Drug Metabolism and Pharmacokinetics Profiling”, Assay and Drug Development Technologies, 2020, 18(4), 157-179. Data are reported in Table 36 as solubility ([…]. Where the assay was run multiple times for the same compound, the arithmetic mean is reported.

A short description of series [2]: Rat Hepatocyte Stability (Test E). Type of series: in vitro ADME. Particulars: rat, hepatocytes, geometric mean if run multiple times. As for the experimental part: Rat Hepatocyte Stability (Test E)
The assay was conducted according to the Rat Hepatocyte Stability Assay described in pages 170-174 of Wernevik, J. et al., “A Fully Integrated Assay Panel for Early Drug Metabolism and Pharmacokinetics Profiling”, Assay and Drug Development Technologies, 2020, 18(4), 157-179. Data are reported in Table 36 as mean Clint(μl/min/10^6 cells). Where the assay was run multiple times for the same compound, the geometric mean is reported.

Series [3] in a line: Human Plasma Protein Binding (Test B). Type of series: in vitro ADME. Conditions: fraction unbound (fu). As for the experimental part: Human Plasma Protein Binding (Test B)
The assay was conducted according to the Human Plasma Protein Binding Assay described in pages 167-170 of Wernevik, J. et al., “A Fully Integrated Assay Panel for Early Drug Metabolism and Pharmacokinetics Profiling”, Assay and Drug Development Technologies, 2020, 18(4), 157-179. Data are reported in Table 36 as fraction unbound (fu) (% free). Where the assay was run multiple times for the same compound, the arithmetic mean is reported.

Series [4] in a line: Human Liver Microsomal Stability (Test C). Type of series: in vitro ADME. Particulars: human, liver microsomes. As for the experimental part: Human Liver Microsomal Stability (Test C)
The assay was conducted according to the Human Liver Microsome Stability Assay described in pages 170-174 of Wernevik, J. et al., “A Fully Integrated Assay Panel for Early Drug Metabolism and Pharmacokinetics Profiling”, Assay and Drug Development Technologies, 2020, 18(4), 157-179. Data are reported in Table 36 as CLint (μl/min/mg protein). Where the assay was run multiple times for the same compound, the arithmetic mean is reported.

Series [5] concerns the target T1, human RXFP1 (Homo sapiens, UniProt Q9HBX9).
T1 sequence (Q9HBX9 1-757): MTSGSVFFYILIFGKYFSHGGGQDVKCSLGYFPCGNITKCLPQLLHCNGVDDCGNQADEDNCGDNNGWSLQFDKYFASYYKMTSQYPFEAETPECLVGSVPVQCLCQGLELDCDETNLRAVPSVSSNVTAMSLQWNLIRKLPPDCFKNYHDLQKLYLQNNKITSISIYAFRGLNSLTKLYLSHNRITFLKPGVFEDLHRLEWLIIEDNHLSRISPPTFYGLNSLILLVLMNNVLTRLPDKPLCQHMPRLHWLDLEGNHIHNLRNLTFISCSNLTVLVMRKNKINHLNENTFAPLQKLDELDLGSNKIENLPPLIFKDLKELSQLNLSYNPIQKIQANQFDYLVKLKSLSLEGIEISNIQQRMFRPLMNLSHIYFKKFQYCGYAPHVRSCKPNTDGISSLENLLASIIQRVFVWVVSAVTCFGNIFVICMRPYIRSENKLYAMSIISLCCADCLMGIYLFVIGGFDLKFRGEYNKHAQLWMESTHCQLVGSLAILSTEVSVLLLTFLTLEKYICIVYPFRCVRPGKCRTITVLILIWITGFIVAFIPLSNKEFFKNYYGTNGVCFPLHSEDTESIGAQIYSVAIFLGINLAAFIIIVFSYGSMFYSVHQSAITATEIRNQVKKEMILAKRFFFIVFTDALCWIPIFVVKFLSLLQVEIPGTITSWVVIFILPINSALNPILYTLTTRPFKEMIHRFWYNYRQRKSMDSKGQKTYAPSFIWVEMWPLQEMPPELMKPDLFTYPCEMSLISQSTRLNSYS
Kind of series: RXFP1 Hu cAMP (Test A). Format: cell-based. Further details: expressed in transfected cells; host or cells: Jump-In T-REx CHO-K1 cells (ThermoFisher), induced with 10 ng/ml doxycycline for 24 h. Conditions: RXFP1 Hu cAMP; for EC50: read-out: Test A EC50. Put shortly: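 CHO-K1 (Jump-In T-REx), RXFP1 induced w/ 10 ng/ml doxycycline 24 h, cryopreserved. 0.5 mM IBMX final. cAMP by HTRF, 2 h RT, std curve.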

Structures are written as SMILES. Values after ≈ are worked out from the molar mass of the structure shown.

Eleven compounds from patent US11667602B2, “Compounds and their use” (AstraZeneca AB, priority 2020, dated 2023) can be followed below.

Consider `COc1cc(F)c(-c2ccc(C(=O)O)cc2)cc1C(=O)N[C@H]1[C@@H](C(=O)Nc2cccc(S(=O)(=O)C(F)(F)F)c2)[C@@H]2C=C[C@H]1C2` (racemic) [Example 224, rac-2′-Fluoro-4′-methoxy-5′-(((1R,2R,3S,4S)-3-((3-((trifluoromethyl)sulfonyl)phenyl)carbamoyl)bicyclo[2.2.1]hept-5-en-2-yl)carbamoyl)-[1,1′-biphenyl]-4-carboxylic acid], for which, in series [1], the concentration in solution (solubility) came to 870 µM (≈ 550 µg/mL). Besides, in series [2], the hepatocyte CLint (as a rule, the capacity of the preparation to metabolise the compound, expressed as a volume cleared per time) turned out to be 19 µL/min/1e6 cells. In addition, the “Test B Human Plasma Protein Binding (% free)” value in series [3] stood at 0.16 % free. Besides, the microsomal CLint (in general, a measure of how fast metabolising enzymes remove a compound, apart from limits set by blood flow) in series [4] was found to be 6.3 µL/min/mg. In series [5], the “Test A Sinf” value was 92% and the EC50 (commonly the concentration that produces a half-maximal response) amounted to 190 nM.

In the case of `COc1cc(F)c(-c2cccc(C(=O)O)c2)cc1C(=O)N[C@H]1[C@@H](C(=O)Nc2cccc(S(=O)(=O)C(F)(F)F)c2)[C@@H]2C=C[C@H]1C2` (racemic) [Example 225, rac-2′-Fluoro-4′-methoxy-5′-(((1R,2R,3S,4S)-3-((3-((trifluoromethyl)sulfonyl)phenyl)carbamoyl)bicyclo[2.2.1]hept-5-en-2-yl)carbamoyl)-[1,1′-biphenyl]-3-carboxylic acid], the concentration in solution in series [1] (solubility) was 10 µM (≈ 6.33 µg/mL). Further, the hepatocyte CLint in series [2] was found to be 22 µL/min/1e6 cells. The “Test B Human Plasma Protein Binding (% free)” value in series [3] is reported as 0.10 % free. The compound further had an intrinsic metabolic clearance (microsomal CLint) in series [4] of 6.6 µL/min/mg. In series [5], the “Test A Sinf” value stood at 98% and the EC50 is 240 nM.

For the compound `COc1cc(F)c(C2=CCC(C(=O)O)CC2)cc1C(=O)N[C@@H]1[C@H]2CC[C@H](C2)[C@@H]1C(=O)Nc1cccc(S(=O)(=O)C(F)(F)F)c1` (mixture of isomers) [Example 267, (RS)-2′-Fluoro-4′-methoxy-5′-(((1S,2R,3S,4R)-3-((3-((trifluoromethyl)sulfonyl)phenyl)carbamoyl)bicyclo[2.2.1]heptan-2-yl)carbamoyl)-2,3,4,5-tetrahydro-[1,1′-biphenyl]-4-carboxylic acid], the concentration in solution in series [1] (solubility) came to 680 µM (≈ 434 µg/mL). In series [2], this compound came in with a hepatocyte CLint of 14 µL/min/1e6 cells. The “Test B Human Plasma Protein Binding (% free)” value in series [3] turned out to be 0.39 % free. The same compound yielded a microsomal CLint in series [4] of 32 µL/min/mg. Moreover, in series [5], the “Test A Sinf” value was determined as 93% and the EC50 was > 350 nM.

As for `COc1cc(F)c(-c2cccc(CCC(=O)O)c2)cc1C(=O)N[C@H]1[C@@H](C(=O)Nc2cccc(S(=O)(=O)C(F)(F)F)c2)[C@@H]2C=C[C@H]1C2` (racemic) [Example 282], the solubility (usually the dissolved amount per volume that the medium holds) in series [1] is 48 µM (≈ 31.7 µg/mL). The same compound came in with a hepatocyte CLint in series [2] of 12 µL/min/1e6 cells. Moreover, in series [3], the “Test B Human Plasma Protein Binding (% free)” value was <0.25 % free. The compound also came in with an intrinsic clearance (microsomal CLint) in series [4] of 6.2 µL/min/mg. In addition, in series [5], the “Test A Sinf” value came to 105% and the EC50 was 490 nM.

`COc1cc(F)c(-c2ccc(CCC(=O)O)cc2)cc1C(=O)N[C@H]1[C@@H](C(=O)Nc2cccc(S(=O)(=O)C(F)(F)F)c2)[C@@H]2C=C[C@H]1C2` (racemic) [Example 283]: in series [1], the concentration in solution (solubility) was 220 µM (≈ 145 µg/mL). The hepatocyte CLint in series [2] came to 15 µL/min/1e6 cells. Moreover, the “Test B Human Plasma Protein Binding (% free)” value in series [3] is listed as <0.29 % free. This compound also gave a microsomal CLint in series [4] of 12 µL/min/mg. Besides, in series [5], the “Test A Sinf” value is on record as 87% and the EC50 was determined as 220 nM.

Take `COc1cc(F)c(OCCCCC(=O)O)cc1C(=O)N[C@H]1[C@@H](C(=O)Nc2cccc(S(=O)(=O)C(F)(F)F)c2)[C@@H]2C=C[C@H]1C2` (racemic) [Example 451]: the solubility in series [1] was 700 µM (≈ 440 µg/mL). Further, in series [2], the hepatocyte CLint worked out at 68 µL/min/1e6 cells. Moreover, in series [3], the “Test B Human Plasma Protein Binding (% free)” value stood at 0.93 % free. This compound came in with a microsomal CLint in series [4] of 15 µL/min/mg. Besides, in series [5], the “Test A Sinf” value is 127% and the EC50 was determined as 310 nM.

`COc1cc(C#N)c(O[C@H]2C[C@@]3(C2)C[C@H](C(=O)O)C3)cc1C(=O)N[C@@H]1[C@H]2CC[C@H](C2)[C@@H]1C(=O)NCC1(C)CCC1` (single isomer, unassigned) [Example 6, (2R*,4r,6R)-6-(2-Cyano-4-methoxy-5-(((1S,2R,3S,4R)-3-(((1-methylcyclobutyl)methyl)carbamoyl)bicyclo[2.2.1]heptan-2-yl)carbamoyl)phenoxy)spiro[3.3]heptane-2-carboxylic acid] displayed a solubility in series [1] of 820 µM (≈ 451 µg/mL). The compound further yielded a hepatocyte CLint in series [2] of 21 µL/min/1e6 cells. Also, the “Test B Human Plasma Protein Binding (% free)” value in series [3] amounted to 4.2 % free. This compound displayed a microsomal CLint in series [4] of 35 µL/min/mg. Moreover, in series [5], the “Test A Sinf” value is listed as 89% and the EC50 turned out to be 720 nM.

Consider `COc1cc(C#N)c(O[C@H]2C[C@]3(C2)C[C@H](C(=O)O)C3)cc1C(=O)N[C@@H]1[C@H]2CC[C@H](C2)[C@@H]1C(=O)NCC1(C)CCC1` (single isomer, unassigned) [Example 7, (2R*,4r,6R)-6-(2-Cyano-4-methoxy-5-(((1S,2R,3S,4R)-3-(((1-methylcyclobutyl)methyl)carbamoyl)bicyclo[2.2.1]heptan-2-yl)carbamoyl)phenoxy)spiro[3.3]heptane-2-carboxylic acid], for which, in series [1], the solubility worked out at 820 µM (≈ 451 µg/mL). The hepatocyte CLint in series [2] came to 23 µL/min/1e6 cells. In addition, the “Test B Human Plasma Protein Binding (% free)” value in series [3] was 4.4 % free. In series [4], this compound displayed a microsomal CLint of 23 µL/min/mg. Further, in series [5], the “Test A Sinf” value amounted to 86% and the EC50 amounted to 1300 nM.

In series [1], `COc1cc(F)c(O[C@H]2C[C@@](C)(C(=O)O)C2)cc1C(=O)N[C@@H]1[C@H]2CC[C@H](C2)[C@@H]1C(=O)NCC1(C)CCC1` [Example 149, (1S,3s)-3-(2-fluoro-4-methoxy-5-(((1S,2R,3S,4R)-3-(((1-methylcyclobutyl)methyl)carbamoyl)bicyclo[2.2.1]heptan-2-yl)carbamoyl)phenoxy)-1-methylcyclobutane-1-carboxylic acid] returned a solubility of 840 µM (≈ 434 µg/mL). In series [2], the hepatocyte CLint came to 11 µL/min/1e6 cells. Further, the “Test B Human Plasma Protein Binding (% free)” value in series [3] came out at 11 % free. The microsomal CLint in series [4] was 7.6 µL/min/mg.

On to `COc1cc(F)c(C[C@H]2CC[C@@](C)(C(=O)O)CC2)cc1C(=O)N[C@@H]1[C@H]2CC[C@H](C2)[C@@H]1C(=O)NCC1(C)CCC1` [Example 204, (1S,4s)-4-(2-fluoro-4-methoxy-5-(((1S,2R,3S,4R)-3-(((1-methylcyclobutyl)methyl)carbamoyl)bicyclo[2.2.1]heptan-2-yl)carbamoyl)benzyl)-1-methylcyclohexane-1-carboxylic acid], for which, in series [1], the concentration in solution (solubility) came to 61 µM (≈ 33.1 µg/mL). Also, in series [2], the hepatocyte CLint amounted to 18 µL/min/1e6 cells. Further, in series [3], the “Test B Human Plasma Protein Binding (% free)” value is 0.29 % free. In series [4], this compound gave a microsomal CLint of 78 µL/min/mg.

For the compound `COc1cc(F)c(CC2CCC(C)(C(=O)O)CC2)cc1C(=O)NC1C2CCC(C2)C1C(=O)NCC1(C)CCC1` [Example 205, (1R,4r)-4-(2-fluoro-4-methoxy-5-(((1S,2R,3S,4R)-3-(((1-methylcyclobutyl)methyl)carbamoyl)bicyclo[2.2.1]heptan-2-yl)carbamoyl)benzyl)-1-methylcyclohexane-1-carboxylic acid], the solubility in series [1] worked out at 180 µM (≈ 97.7 µg/mL). Further, the hepatocyte CLint in series [2] was 26 µL/min/1e6 cells. For the same compound, the “Test B Human Plasma Protein Binding (% free)” value in series [3] was found to be 0.58 % free. Also, the microsomal CLint in series [4] is 49 µL/min/mg.
